Laboratory results published in US7101533B2, “Agent for inducing receptor potential” (Kabushiki Kaisha Hayashibara Seibutsu Kagaku Kenkyujo, priority 2002, dated 2006).

System: retinal nerve cells
Assay: intracellular calcium experimental method in cultured chick embryo retinal cells with photostimulation (Fluo-4 fluorescence and intracellular potential)
Assay type: cell-based
Source text: All the above polymethine organic dye compounds can be obtained in the desired amount either by the method disclosed in “Kanko-Shikiso” (Photosynthetic Dyes), pp. 11–31, edited by Masaaki Hayami, published by Sangyo Tosho Publisher on Oct. 17, 1997; or in accordance therewith. In case the compounds are commercially available, they can be optionally purified prior to use. Evaluation of whether organic dye compounds evoke receptor potential in response to photostimulation in the optic nerve can be determined in accordance with the intracellular calcium experiment method disclosed in “Jikken-Igaku” (Experimental Medicine), Vol. 7, No. 6, edited by Hideaki Karaki et al., published on Apr. 5, 1989 by Yodosha, Co., Ltd., Tokyo, Japan, with a modification that an organic dye compound to be tested coexists in animal retinal cells cultured in a nutrient culture medium containing a fluorescent calcium indicator, followed by detecting the intensity of fluorescence emitted from the indicator or of the electric potential generated intracellularly. […]
Thereafter, Fluo-4 acetoxymethyl ester, commercialized by Molecular Probe, Oregon, U.S.A., a fluorescent calcium indicator, was added to each well of the culture plates to give a concentration of 10 μM, incubated at 37° C. for 30 min, and further incubated for another 30 min similarly as above except for omitting Fluo-4 acetoxymethyl ester. […] The organic dye compounds in Table 1 were respectively dissolved in dimethylsulfoxide and irradiated with a light having a wavelength of 470 to 490 nm to excite Fluo-4 acetoxymethyl ester before or after being added to each culture in each well to give a concentration of 0.0005 to 0.5 μg/ml, followed by detecting the intensity of fluorescence and the intracellular potential at a wavelength of around 510 to 550 nm emitted from the excited Fluo-4 acetoxymethyl ester. […]

SMILES: CCCC1=NN(c2ccc(S(=O)(=O)[O-])cc2)C(=O)C1=CC=C(C=Cc1c(CCC)nn(-c2ccc(S(=O)(=O)[O-])cc2)c1[O-])c1ccccc1.[Na+].[Na+].[Na+] [Chemical Formula 14]
- Fluorescent intensity With calcicludine (as above, with 2.5 μM of calcicludine (antagonist of L-, N-, P-type high-threshold calcium channels)): Unchanged
- Fluorescent intensity Without calcicludine (chick embryo retinal nerve cells loaded with Fluo-4 acetoxymethyl ester, dye 0.0005 to 0.5 μg/ml, light 470 to 490 nm, emission around 510 to 550 nm, no calcicludine): Increased
- Intracellular potential (receptor potential observed as intracellular potential, dye 0.0005 to 0.5 μg/ml, light 470 to 490 nm, absence of calcicludine): Detected
